Like-named read-outs stand apart in the source and are kept apart here.
How the values were obtained:
HEC-251 cells = assay: In vitro cytotoxicity analysis (Crystal Violet), HEC-251; assay type: cell-based; conditions: Homo sapiens
Experimental: (§1) Plates were read at 570 nm. Data was analyzed using GraphPad Prism 6.

[1] = test system: human mesothelioma PDX Meso7212; assay: Human mesothelioma PDX model Meso7212 (Example 3)
Experimental: NMRI nu/nu female mice (Janvier Labs, 5-6 weeks) were acclimated for at least 4 days upon arrival prior to inoculation. Animals was housed 3-5 mice per ventilated cage with sterilized food pellets and water bottle available ad lib. Animals were ear marked and weighed prior to study initiation.
Donor tumor tissue was cut into 2×2 mm fragments and placed in a sterile Petri dish covered with 0.9% saline. In parallel, the receptor animals were subcutaneously treated with the analgesic Metacam® (2 mg/kg) and then anaesthetized by a single intravenous injection (0.15 mL/mouse) with Etomidat-Lipuro® (12 mg/kg). A superficial vertical incision in the skin of 5-8 mm on the left flank was performed. The tip of a surgical scissor was inserted into the incision, directly over the flank, and was used to form a pocket in the subcutaneous space. One tumor fragment per mouse was implanted into the pocket using surgical tweezers. The incision was closed with a metal clip and the animals were placed back into a clean cage.
During tumor propagation, tumor diameters were measured using a digital caliper (Mitutoyo). Animals were randomly assigned into experimental groups according to their tumor volume (inclusion criteria for tumor volume, 0.1-0.3 cm^3). Tumor volumes and body weights were recorded twice weekly.
The administration volume was 10 mL/kg for intravenous injections throughout all experimental groups.
Descriptive statistics were performed on the data for tumor volume and body weight. Tumor volumes of animals from each treatment group were compared with the control group by using a repeated-measures two-way ANOVA, followed by a Bonferroni post-test. Additionally, the comparison of tumor growth of animals within each group was also performed with the same statistical analysis.

MSLN-positive cell lines = assay: In vitro cytotoxicity (IC50, Crystal Violet) on MSLN-positive cell lines (Example 11)
Experimental: Cytotoxicity: Cells were sub-cultured and seeded at 5,000 cells/well in complete growth medium in 96-well tissue culture plates, and incubated at 37° C., 5% CO2 overnight (16 hours). Test reagents were serially diluted 1:3 in 2 mL deep-well dilution plates, starting at 200 nM (10 dilutions total). Diluted samples (100 μL) were added to the cell plates (starting concentration of test samples at 100 nM). Plates were incubated at 37° C. 5% CO2 for an additional 5 days. Medium was then discarded, and plates were washed once with 200 μL DPBS, stained with 50 μL of 0.2% Crystal Violet solution at room temperature for 15 min, and then washed extensively with tap water. Plates were air-dried, and Crystal Violet was dissolved with 200 μL of 1% SDS solution. Plates were read at 570 nm. Data was analyzed for IC50 determination using GraphPad Prism 6.

human NSCLC PDX LXFL-529 = assay: Human NSCLC PDX model LXFL-529
Description: (§2) Animals: Female NMRI nu/nu mice, 4 to 6 weeks of age.
Xenotransplantation: LXFL-529 established growing tumor (T3N1M0) from a primary non-small cell lung adenocarcinoma human patient.
Experimental procedure: Animals were monitored until the tumor implants reached the study volume criteria of 50-250 mm^3 (e.g., 80-200 mm^3) in a sufficient number of animals. […] The process of the assignment to groups (enrollment, stratified randomization) may also be referred to as randomization. The day of randomization was designated as day 0 of the experiment.
(§3) Tumors were measured and mice were weighed twice a week during the experimental period. The first day of dosing was day 1, one day after randomization (day 0).

[2] = test system: A3 (A431 stably transfected with human mesothelin) cells; assay: In vitro cytotoxicity analysis (Crystal Violet), A3; assay type: cell-based
Experimental: as §1
Fifteen anti-mesothelin antibodies were sub-cloned, scale-up expressed and purified, and conjugated using maleimide-VCP-eribulin as payload at the Cys80 position. All ADCs were purified and characterized using SEC-HPLC for aggregation analysis, HIC-HPLC for DAR analysis, and cell-based assay with A431-A3 (MSLN^hi), A431 (MSLN^lo), and OVCAR3 (MSLN^hi) cell lines. […] Based on the characterization data below, six antibodies (bolded) were selected for humanization.

MSLN-negative cell lines = assay: In vitro cytotoxicity (IC50, Crystal Violet) on MSLN-negative cell lines (Example 11); assay type: cell-based; conditions: for IC50: Homo sapiens, read-out: In vitro cell based potency, IC50
Experimental: Plates were incubated at 37° C. 5% CO2 for an additional 5 days. […] Plates were read at 570 nm.

human NSCLC PDX LXFA-586 = assay: Human NSCLC PDX model LXFA-586
Description: as §2
Xenotransplantation: LXFA-586 established growing tumor (T2N1M0) from a primary non-small cell lung adenocarcinoma human patient.
Experimental procedure: Animals were monitored until the tumor implants reached the study volume criteria of 50-250 mm^3 (e.g., 80-200 mmi) in a sufficient number of animals. […] The process of the assignment to groups (enrollment, stratified randomization) may also be referred to as randomization. The day of randomization was designated as day 0 of the experiment.
as §3

human NSCLC PDX LC-F-25 = assay: Human NSCLC PDX model LC-F-25; assay type: in vivo, mouse
Experimental: Statistical analysis: Statistical analysis was performed for each measurement by a Mann-Whitney non-parametric comparison test. Each treated group was compared with the control group.

OVCAR3 cells = assay: In vitro cytotoxicity analysis (Crystal Violet), OVCAR3; assay type: cell-based; conditions: Homo sapiens
Experimental: as §1
(§4) All ADCs were purified and characterized using SEC-HPLC for aggregation analysis, HIC-HPLC for DAR analysis, and cell-based assay with A431-A3 (MSLN^hi), A431 (MSLN^lo), and OVCAR3 (MSLN^hi) cell lines.

A431 cells = assay: In vitro cytotoxicity analysis (Crystal Violet), A431; conditions: Homo sapiens, A-431, read-out: Cell based Cytotoxicity assay, EC50 (nM) A431-6 hr; treated with ADC for 6 hours then washed off
Experimental: as §1, §4

human NSCLC PDX LXFA-737 = test system: human NSCLC PDX LXFA-737
Experimental: Animals: Female NMRI nu/nu mice (Crl:NMRI-Foxn1nu), 4 to 6 weeks of age.
Experimental procedure: Animals were monitored until the tumor implants reached the study volume criteria of 50-250 mm^3 (e.g., 80-200 mm^3) in a sufficient number of animals. […] The day of randomization was designated as day 0.
as §3
Statistical analysis: Inhibition of Tumor Growth, Test/Control Value in % (Min. T/C): The test versus control value (T/C in %) was calculated from the ratio of the median residual tumor volume (RTV) values of test versus control groups on day X multiplied by 100. Tumor volume doubling and quadrupling time (Td, Tq) for test and control groups was defined as the time interval (in days) required for a group to reach a median RTV of 200% or 400%.

[3] = eribulin single dose of 0.1 mg/kg i.v.
[4] = eribulin single dose of 3.2 mg/kg i.v.

## C=C1C[C@@H]2CC[C@@]34C[C@H]5O[C@H]6[C@@H](O3)[C@H]3O[C@H](CC[C@@H]3O[C@H]6[C@H]5O4)CC(=O)C[C@@H]3[C@@H](OC)[C@@H](C[C@H](O)CN)O[C@H]3C[C@H]3O[C@@H](CC[C@@H]1O2)C[C@@H](C)C3=C [Eribulin, eribulin, reference compound]
HEC-251 cells; HEC-251, 120 h, Table 18, 5 days, read-out: Cell-Based Cytotoxicity Assay, EC50 (nM) HEC-251
  EC50: 0.2 nM
HEC-251 cells; HEC-251, Table 19, payloads, read-out: Cell-Based Cytotoxicity Assay EC50 (nM) HEC-251
  EC50: 0.2 nM
[1]; Meso7212 (MV15369), eribulin alone 0.2 mg/kg (equivalent molar amount)
  anti-tumor effect: limited anti-tumor effects
[1]; Meso7212 (MV16071), eribulin 0.3 mg/kg
  body weight change: No body weight loss
[1]; Meso7212 (MV16071), eribulin alone 0.3 mg/kg (equivalent molar amount)
  anti-tumor effect: limited or no anti-tumor effects
MSLN-positive cell lines; Homo sapiens, NCI-H292, read-out: In vitro cell based potency, IC50
  IC50: 0.11 nM
MSLN-positive cell lines; NCI-H292 cells (MSLN MFI 108.6)
  % Max Killing: 85.37%
MSLN-positive cell lines; NCI-H1568, read-out: In vitro cell based potency, IC50
  IC50: 0.14 nM
MSLN-positive cell lines; NCI-H1568/MSLN cells (MSLN MFI 4474.00)
  % Max Killing: 74.39%
MSLN-positive cell lines; OVCAR3-A1 cells (MSLN MFI 220.0)
  % Max Killing: 99.31%
MSLN-positive cell lines; read-out: In vitro cell based potency, IC50
  IC50: 0.02 nM
Human NSCLC PDX LXFL-529; eribulin single dose of 3.2 mg/kg (mouse MTD) i.v.
  anti-tumor efficacy: showed anti-tumor efficacy
Human NSCLC PDX LXFL-529; mouse, in vivo, iv, 3.2 mg/kg
  tolerability / bodyweight: slight and transient bodyweight loss
[2]; A-431, 120 h, Table 18, 5 days, read-out: Cell-Based Cytotoxicity Assay, EC50 (nM) A3
  EC50: 1.03 nM
[2]; A-431, Table 19, payloads, read-out: Cell-Based Cytotoxicity Assay EC50 (nM) A3
  EC50: 1.03 nM
[2]; A-431, read-out: Cell based Cytotoxicity assay, EC50 (nM) A3-6 hr, treated with ADC for 6 hours then washed off
  EC50: 4.08 nM
[2]; A-431, read-out: Cell based Cytotoxicity assay, EC50 (nM) A3-48 hr, treated for 48 hours
  EC50: 1.09 nM
MSLN-negative cell lines; A431 cells (MSLN MFI 5.6)
  % Max Killing: 93.04%
MSLN-negative cell lines; BxPC3 cells (MSLN MFI 15.59)
  % Max Killing: 97.28%
MSLN-negative cell lines; A-431, A431 cells (MSLN MFI 5.6)
  IC50: 0.18 nM
MSLN-negative cell lines; BXPC-3, BxPC3 cells (MSLN MFI 15.59)
  IC50: 0.13 nM
MSLN-negative cell lines; SK-OV-3, SKOV3 cells (MSLN MFI 20)
  IC50: 0.14 nM
MSLN-negative cell lines; SKOV3 cells (MSLN MFI 20)
  % Max Killing: 72.82%
Human NSCLC PDX LXFA-586; eribulin single dose of 3.2 mg/kg i.v., on day 21
  minimum T/C: 14.8%
Human NSCLC PDX LXFA-586; mouse, in vivo, iv, 3.2 mg/kg
  tolerability / bodyweight: slight and transient bodyweight loss
Human NSCLC PDX LC-F-25; [3]
  tolerability: well tolerated
  tumor growth inhibition: did not induce statistically significant tumor growth inhibition
Human NSCLC PDX LC-F-25; eribulin single dose of 3.2 mg/kg (mouse MTD) i.v., from 3 to 10 days after administration
  tolerability / bodyweight: slight and transient bodyweight loss
Human NSCLC PDX LC-F-25; [4]
  partial tumor regressions: 6 out of 8
  tumor growth inhibition: statistically significant tumor growth inhibition
OVCAR3 cells; OVCAR-3, read-out: Cell based Cytotoxicity assay, EC50 (nM) OVCAR3-6 hr, treated with ADC for 6 hours then washed off
  EC50: 2.81 nM
OVCAR3 cells; OVCAR-3, read-out: Cell based Cytotoxicity assay, EC50 (nM) OVCAR3-72 hr, treated for 72 hours
  EC50: 0.25 nM
A431 cells
  EC50: 2.86 nM
Human NSCLC PDX LXFA-737; eribulin single dose of 0.2 mg/kg, on day 44
  minimum T/C: 51.1%
Human NSCLC PDX LXFA-737; [4]
  Tq (tumor volume quadrupling time): 80.1%
Human NSCLC PDX LXFA-737; eribulin single dose of 3.2 mg/kg i.v., on day 27
  minimum T/C: 4.2%
Human NSCLC PDX LXFA-737; mouse, in vivo, iv, 3.2 mg/kg
  tolerability / bodyweight: slight and transient bodyweight loss

— patent US12564641B2 (EISAI R&D MANAGEMENT CO., LTD., priority 2019, dated 2026)
